Laboratory results taken from patent EP3666770A1, “NOVEL HETEROCYCLIC COMPOUNDS AS CDK8/19 INHIBITORS” (Joint Stock Company "Biocad", priority 2017, dated 2019).
Where two headings read alike, the source gives them in different places.

How the values were obtained:
KG-1 = assay: Cell-based antiproliferative test (AlamarBlue), KG-1; details: 120 h incubation, average values of several tests, read-out: KG-1 IC50, mkM
Description: (§1) Antiproliferative activity of CDK8 inhibitors according to the present invention was measured in a cell-based test on continuous cell cultures MV4-11 (biphenotypic myelomonocytic leukemia, ATCC® CRL-9591™), KG-1 (acute myeloid leukemia, ATCC® CCL-246™), HL-60 (acute promyelocytic leukemia, ATCC® CCL-240™) using a vital stain AlamarBlue (ThermoFisher, #DAL1100). The cells were grown in RPMI-1640 (PanEco, #C330p) medium with addition of 10% FBS (Gibco, #16140-071); washed and resuspended in culture medium with 10% FBS (Gibco, #16140-071) in 96-well culture plates (Corning, #3599) with ≈ 10 ×10^3 cells in […] of medium per well. The compounds in question were dissolved in DMSO and diluted with a medium with 10% FBS (Gibco, #16140-071) to a final concentration ranging form 0 to 100 µM. […] of diluted compounds were then added to each well (final DMSO concentration was less than 1%) and incubated under 5% CO2 atmosphere at 37°C for 120 h. After incubating, 15 µL of AlamarBlue (ThermoFisher, #DAL1100) reagent was added per well, contents of plates were mixed in an orbital shaker (Biosan, Latvia) and further incubated for 3-5 h at 37°C under 5% CO2 atmosphere. Number of living cells was estimated using a microplate spectrophotometer (Tecan Infinite M200Pro, Switzerland) measuring fluorescent signal at the excitation wavelength (λEx) of 540 nm and emission wavelength (λEm) of 590 nm.
(§2) IC50 was calculated using Magellan 7.2 software (Tecan, Switzerland) approximating experimental points by four-parameter logistic model with the optimization by Levenberg-Marquardt (table 7, table 7).

MV4-11 = assay: Cell-based antiproliferative test (AlamarBlue), MV4-11; details: 120 h incubation, average values of several tests, read-out: MV-4-11 IC50, mkM
Description: as §1, §2

[1] = Chemical stability in simulated gastric fluid (SGF); type: physicochemical; details: SGF without enzymes, pH=1,4; 10 µm; 2 hours at 37°C; substance amount in % after thermostatting
Description: (§3) Chemical stability of the compounds described herein was determined in simulated gastric fluid and human blood plasma.
SGF concentrate without enzymes, pH=1,4 (Sigma Ireland, cat#01651) was used as simulated gastric fluid. Initial candidate solution (10 mM in DMSO) was diluted with an SGF working solution to a concentration of […] (test solution). The test solution was incubated in a dry block thermostat for 2 hours at 37°C. HPLC with Agilent 1200 liquid chromatography system (Agilent, USA) was employed to determine peak areas of the compounds in test samples, said peak areas corresponding to the initial test time (prior to incubation) and the final test time (after incubation in a dry block thermostat for 2 hours at 37°C). Chromatographic analysis was performed in a gradient elution regime with a flow rate of 1 mL/min. Substance amount in % in a sample after thermostatting was determined.

[2] = Chemical stability in human blood plasma; type: in vitro ADME; details: pooled human blood plasma; 10 µM; 4 hours at 37°C; substance amount in % after thermostatting
Description: as §3
Determination of stability in human blood plasma was performed using pooled human blood plasma taken from ten healthy donors. The initial candidate solution (10 mM in DMSO) was diluted with pooled blood plasma to a concentration of […] (test solution). The test solution was incubated in a dry block thermostat for 4 hours at 37°C. HPLC with Agilent 1200 liquid chromatography system (Agilent, USA) was employed to determine peak areas of the compounds in test samples, said peak areas corresponding to the initial test time (prior to incubation) and the final test time (after incubation in a dry block thermostat for 4 hours at 37°C), proteins were preliminarily precipitated with acetonitrile. Chromatographic analysis was performed in a gradient elution regime with a flow rate of 1 mL/min. Substance amount in % in a sample after thermostatting was determined.

[3] = General cytotoxicity test on HepG2 cells; type: cell-based; details: human, 72 h incubation, 200 to 0.78 µM, average values of several tests, read-out: Hep-G2 CC50, mkM
Description: Cell viability was assessed using the above method. Table 6. […] The results are presented as average values of activity obtained in several tests.

[4] = Permeability through Caco-2 cell monolayer; type: in vitro ADME; details: human, Caco-2; for Papp A→B at 2 h, 10 µM: A->B transfer, pH 6.5 -> pH 7.4, 2 hours at 37 °C; for efflux ratio at 2 h, 10 µM: efflux = Papp B-A / Papp A-B
Description: Estimation of permeability through Caco-2 cell monolayer enables assessment of the ability of the substances to penetrate through biological membranes by means of both active and passive transport.
Intestinal epithelial cells Caco-2 were grown on filter inserts (pore size 0.4 µm, BD Falcon with High Density) for 21 days; monolayer integrity was then checked using Lucifer Yellow (Sigma-Aldrich, USA) according to the standard protocol. In A->B transfer ("intestinal lumen" - "blood stream" transfer), solutions of the test substances in buffer, pH 6.5 (HBSS, 10 mM HEPES, 15 mM glucose) at a concentration of 10 µM were added to the upper chamber; whereas the lower chamber was filled with buffer, pH 7.4 (HBSS, 10 mM HEPES, 15 mM Glucose, 1% BSA). In B->A transfer ("blood stream" - "intestinal lumen" transfer), the upper chamber was filled with buffer, pH 6.5, whereas the solutions of the test substances in buffer, pH 7.4, at a concentration of 10 µM were added to the lower chamber. A highly permeable substance propranolol was used as a control.
After 2 hours incubation at 37 ° C under an atmosphere containing 5% CO2, the amounts of the test substances in the upper and lower chambers were measured by HPLC using an Agilent1200 HPLC system (Agilent, USA), proteins were preliminarily precipitated with acetonitrile. Chromatographic analysis was performed in a gradient elution regime with a flow rate of 1 mL/min. The peak areas corresponding to the compounds were detected on chromatograms.
The value was calculated using the formula: efflux = Papp B−A /Papp A−B , [formula] where • Papp A-E - the value of permeability direct analysis A→ B; • Papp B-A - the value of the permeability of the reverse analysis B→ A.

[5] = Enzyme stability in human liver microsomes; type: in vitro ADME; details: pH 7.4; 0,5 mg/mL pooled human liver microsomes; 10 µM compound; 37°C; pH=7,4
Description: Measuring of candidates' enzyme stability enabled estimation of the stability of the present compounds towards the action of enzymes in liver microsomes.
Enzyme degradation rate was measured by incubating the reaction mixture in a dry block thermostat at 37°C, said reaction mixture comprising 0,5 mg/mL of pooled human liver microsomes (XenoTech, USA, cat#H2620), 10 µM compound, 2 mM β-nicotinamide adenine dinucleotide (Carbosynth, UK, cat#NN10871) and 4 mM magnesium chloride in 0,1 M sodium-phosphate buffer, pH=7,4. The reaction was quenched with acetonitrile (100 µL of acetonitrile / 100 µL of the reaction mixture). After quenching, the samples were centrifuged at 10000 rpm for 10 minutes. Supernatant fluid was tested by chromatographic technique using Agilent1200 (Agilent, USA). Chromatographic analysis was performed in a gradient elution regime with a flow rate of 1 mL/min. A graph of the logarithm of substance's peak area as a function of time was made. The dependent factor of the line corresponded to the elimination rate constant K based on which the drug's half-life t1/2 and degradation rate CLint were calculated: Elimination rate constant (k) = (−gradient) [formula] [formula] V(μL/mg) = (volume of incubation(μL))/(protein in the incubation(mg)) [formula] [formula]

SMILES	IC50 (KG-1; Homo sapiens, KG-1)	IC50 (MV4-11; Homo sapiens, MV4-11, 120 h)	Stability in SGF, % [1]	Stability in blood plasma, % [2]	CC50 at 72 h ([3]; HepG2 cells)	Papp A→B at 2 h, 10 µM [4]	efflux ratio at 2 h, 10 µM [4]	microsomal CLint at 10 µM [5]	CC50 at 72 h [3]	IC50 (KG-1)	IC50 (MV4-11)
O=C(c1ccncc1)c1c[nH]c2ncc(-c3ccc(N4CCOCC4)cc3)cc12 [CDK8-4-38, (5-(4-Morpholinophenyl)-1H-pyrrolo[2,3-b]pyridin-3-yl) (pyridin-4-yl)methanone]	60 µM	0.39 µM	100%	100%	> 100 µM	13.9 ×10⁻⁶ cm/s	0.28	20 µL/min/mg	–	–	–
CN1CCN(C(=O)c2cnc3c(N)ncc(-c4ccc(-c5cnn(C)c5)cc4)c3c2)CC1 [CDK8-3-31, (8-Amino-5-(4-(1-methyl-1H-pyrazol-4-yl)phenyl)-1,7-naphthyridin-3-yl)(4-methylpiperazin-1-yl) methanone]	0.002 µM	–	–	–	–	–	–	–	–	–	–
CN(C)c1ccc(-c2cnc3[nH]cc(C(=O)c4cccnc4)c3c2)cc1 [CDK8-4-39, (5-(4-(Dimethylamino)phenyl)-1H-pyrrolo[2,3-b]pyridin-3-yl) (pyridin-3-yl)methanone]	27.7 µM	0.19 µM	100%	100%	> 100 µM	–	–	23.6 µL/min/mg	–	–	–
CN(C)c1ccc(-c2cnc3[nH]cc(C(=O)c4ccncc4)c3c2)cc1 [CDK8-4-40, (5-(4-(Dimethylamino)phenyl)-1H-pyrrolo[2,3-b]pyridin-3-yl) (pyridin-4-yl) methanone]	25 µM	5.56 µM	100%	100%	> 100 µM	–	–	35 µL/min/mg	–	–	–
COC1CN(C(=O)c2cnc3c(N)ncc(-c4ccc(-c5cnn(C)c5)cc4)c3c2)C1 [CDK8-3-34, (8-Amino-5-(4-(1-methyl-1H-pyrazol-4-yl)phenyl)-1,7-naphthyridin-3-yl)(3-methoxyazetidin)methanone]	0.005 µM	–	–	–	–	–	–	–	–	–	–
COc1cc(-c2cnc3[nH]cc(C(=O)c4ccncc4)c3c2)ccc1N1CCOCC1 [CDK8-4-31, (5-(3-Methoxy-4-morpholinophenyl)-1H-pyrrolo[2,3-b]pyridin-3-yl) (pyridin-4-yl) methanone]	21.7 µM	0.61 µM	99.9%	–	–	36.1 ×10⁻⁶ cm/s	0.35	–	> 100 µM	–	–
O=C(c1ccccn1)c1c[nH]c2ncc(-c3ccc(N4CCOCC4)cc3)cc12 [CDK8-4-36, (5-(4-Morpholinophenyl)-1H-pyrrolo[2,3-b]pyridin-3-yl) (pyridin-2-yl)methanone]	1.59 µM	0.46 µM	100%	100%	17 µM	–	–	–	–	–	–
Cn1cc(-c2ccc(-c3cncc4ncc(C(=O)NC5CC5)cc34)cc2)cn1 [CDK8-3-37]	–	–	–	–	–	–	–	–	–	0.004 µM	0.022 µM
O=C(c1cccnc1)c1c[nH]c2ncc(-c3ccc(N4CCOCC4)c(O)c3)cc12 [CDK8-4-7, (5-(3-Hydroxy-4-morpholinophenyl)-1H-pyrrolo[2,3-b]pyridin-3-yl) (pyridin-3-yl) methanone]	–	0.39 µM	99.1%	93.8%	> 200 µM	64.5 ×10⁻⁶ cm/s	0.34	23.2 µL/min/mg	–	–	–
Cn1cc(-c2ccc(-c3cnc(N)c4ncc(C(=O)NC5CC5)cc34)cc2)cn1 [CDK8-3-38, 8-Amino-N-cyclopropyl-5-(4-(1-methyl-1H-pyrazol-4-yl)phenyl)-1,7-naphthyridine-3-carboxamide]	< 0.01 µM	–	–	–	–	–	–	–	–	–	–
O=C(c1cccnc1)c1c[nH]c2ncc(-c3ccc(N4CCOCC4)cc3)cc12 [CDK8-4-37, (5-(4-Morpholinophenyl)-1H-pyrrolo[2,3-b]pyridin-3-yl) (pyridin-3-yl)methanone]	5 µM	0.13 µM	100%	100%	118 µM	8.63 ×10⁻⁶ cm/s	1.08	–	–	–	–
